Results taken from ChEMBL document CHEMBL2311471, “Synthesis of (E)-8-(3-chlorostyryl)caffeine analogues leading to 9-deazaxanthine derivatives as dual A(2A) antagonists/MAO-B inhibitors” (J Med Chem, 2013).
The source made the active and inactive calls. The calls are words filed in the database; no cut-off is given here.

Tests used:
Adenosine receptor A2a [1] = molecular target: Adenosine receptor A2a (Rattus norvegicus, UniProt P30543); test: Binding affinity to A2A receptor in rat brain striatal membrane by radioligand displacement assay; format: cell membranes
Chain of Adenosine receptor A2a (Rattus norvegicus, UniProt P30543) (P30543 whole entry): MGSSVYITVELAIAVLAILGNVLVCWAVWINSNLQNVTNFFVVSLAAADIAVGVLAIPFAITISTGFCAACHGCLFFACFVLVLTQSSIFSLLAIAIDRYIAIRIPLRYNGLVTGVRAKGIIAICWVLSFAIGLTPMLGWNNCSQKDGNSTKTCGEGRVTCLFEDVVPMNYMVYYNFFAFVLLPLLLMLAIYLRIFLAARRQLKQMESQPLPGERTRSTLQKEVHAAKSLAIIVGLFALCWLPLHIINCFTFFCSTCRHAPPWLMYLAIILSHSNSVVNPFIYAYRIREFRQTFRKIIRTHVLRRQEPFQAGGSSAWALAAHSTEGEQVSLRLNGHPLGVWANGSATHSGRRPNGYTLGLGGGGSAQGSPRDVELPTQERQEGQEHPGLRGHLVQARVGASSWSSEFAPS

Mus musculus [2] = test: General behavioral response in CD1 mouse assessed as induction of limbic stereotype at 30 to 100 mg/kg, po after 90 mins by Irwin test; format: organism-based, Limbic system; design: dose 30-100 mg/kg, route oral; conditions: in vivo, 1.5 h
Mus musculus [3] = test: General behavioral response in CD1 mouse assessed as induction of striatal stereotype at 30 to 100 mg/kg, po after 90 mins by Irwin test; format: organism-based; design: dose 30-100 mg/kg, route oral; conditions: in vivo, 1.5 h
Mus musculus [4] = test: General behavioral response in CD1 mouse assessed as induction of striatal stereotype at 10 mg/kg, po after 90 mins by Irwin test; format: organism-based; design: dose 10 mg/kg, route oral; conditions: in vivo, 1.5 h
[5] = molecular target: Sodium-dependent noradrenaline transporter (Homo sapiens) (UniProt P23975); test: Displacement of [3H]nisoxetine from human recombinant norepinephrine transporter expressed in CHO cells at 10 uM after 120 mins by scintillation counting analysis; format: cell-based
Chain of Sodium-dependent noradrenaline transporter (Homo sapiens) (P23975 whole entry): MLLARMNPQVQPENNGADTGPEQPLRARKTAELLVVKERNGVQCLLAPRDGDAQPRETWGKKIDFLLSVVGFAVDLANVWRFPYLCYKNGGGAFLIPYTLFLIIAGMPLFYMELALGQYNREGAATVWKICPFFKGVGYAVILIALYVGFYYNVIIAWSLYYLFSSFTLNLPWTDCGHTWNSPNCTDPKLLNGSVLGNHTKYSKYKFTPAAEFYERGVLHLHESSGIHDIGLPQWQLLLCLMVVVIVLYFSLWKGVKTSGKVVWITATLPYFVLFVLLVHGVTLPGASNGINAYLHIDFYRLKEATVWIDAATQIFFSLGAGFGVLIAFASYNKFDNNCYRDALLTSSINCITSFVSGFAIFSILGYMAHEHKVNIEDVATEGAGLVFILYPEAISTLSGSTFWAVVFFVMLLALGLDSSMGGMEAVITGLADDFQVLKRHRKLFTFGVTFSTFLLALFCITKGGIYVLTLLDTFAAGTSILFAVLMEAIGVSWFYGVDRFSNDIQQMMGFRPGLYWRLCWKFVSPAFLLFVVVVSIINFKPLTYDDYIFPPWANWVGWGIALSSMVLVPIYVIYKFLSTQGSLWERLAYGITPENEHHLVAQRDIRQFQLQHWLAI

[6] = molecular target: 5-hydroxytryptamine receptor 2B (Homo sapiens) (UniProt P41595); test: Displacement of [125I](+/-)DOI from human recombinant 5HT2B receptor expressed in CHO cells at 10 uM after 60 mins by scintillation counting analysis; format: cell-based
Chain of 5-hydroxytryptamine receptor 2B (Homo sapiens) (P41595 whole entry): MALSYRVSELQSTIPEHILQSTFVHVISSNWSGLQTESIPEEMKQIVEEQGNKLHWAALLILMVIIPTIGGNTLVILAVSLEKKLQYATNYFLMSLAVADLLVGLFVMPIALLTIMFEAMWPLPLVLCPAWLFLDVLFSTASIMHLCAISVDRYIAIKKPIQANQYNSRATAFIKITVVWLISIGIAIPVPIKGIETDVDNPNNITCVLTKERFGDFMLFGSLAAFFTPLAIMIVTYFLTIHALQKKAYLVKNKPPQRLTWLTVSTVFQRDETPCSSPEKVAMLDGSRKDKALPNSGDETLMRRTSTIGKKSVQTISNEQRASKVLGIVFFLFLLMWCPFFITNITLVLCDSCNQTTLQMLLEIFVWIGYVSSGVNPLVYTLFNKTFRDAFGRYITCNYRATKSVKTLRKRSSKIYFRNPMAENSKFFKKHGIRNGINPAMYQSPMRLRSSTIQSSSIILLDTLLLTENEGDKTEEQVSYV

[7] = molecular target: T1, Substance-K receptor (Homo sapiens) (UniProt P21452); test: Displacement of [125I]NKA human recombinant NK2 receptor expressed in CHO cells at 10 uM after 60 mins by scintillation counting analysis; format: cell-based
T1 sequence (whole entry): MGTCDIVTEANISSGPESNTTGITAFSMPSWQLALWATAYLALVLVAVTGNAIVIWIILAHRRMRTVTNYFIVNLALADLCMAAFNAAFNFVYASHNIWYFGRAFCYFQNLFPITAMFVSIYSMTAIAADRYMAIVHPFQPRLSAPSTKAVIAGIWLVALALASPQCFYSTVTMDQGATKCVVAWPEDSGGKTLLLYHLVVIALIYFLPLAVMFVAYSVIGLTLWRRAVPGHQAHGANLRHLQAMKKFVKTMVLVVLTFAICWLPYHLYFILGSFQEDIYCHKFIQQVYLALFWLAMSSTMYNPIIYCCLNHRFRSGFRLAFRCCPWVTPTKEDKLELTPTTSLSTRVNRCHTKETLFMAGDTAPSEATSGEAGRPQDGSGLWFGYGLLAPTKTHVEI

Adenosine receptor A2a [8] = molecular target: T2, Adenosine receptor A2a (Homo sapiens, UniProt P29274); test: Displacement of [3H]CGS 21680 from human recombinant adenosine A2A receptor expressed in HEK293 cells at 10 uM after 120 mins by scintillation counting analysis; format: cell-based
T2 sequence (P29274 whole entry): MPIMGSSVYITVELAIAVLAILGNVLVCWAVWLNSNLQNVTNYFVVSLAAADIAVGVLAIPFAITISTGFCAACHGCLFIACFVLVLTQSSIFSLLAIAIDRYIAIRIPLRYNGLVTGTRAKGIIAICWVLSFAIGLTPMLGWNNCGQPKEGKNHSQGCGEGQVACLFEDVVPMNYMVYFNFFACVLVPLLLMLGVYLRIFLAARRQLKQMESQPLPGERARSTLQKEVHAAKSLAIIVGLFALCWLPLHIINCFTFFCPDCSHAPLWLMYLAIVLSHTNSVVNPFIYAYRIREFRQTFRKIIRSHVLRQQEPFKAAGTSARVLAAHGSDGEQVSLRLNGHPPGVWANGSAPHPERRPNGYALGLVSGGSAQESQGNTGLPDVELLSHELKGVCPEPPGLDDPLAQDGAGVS

[9] = molecular target: T3, Adenosine receptor A3 (Homo sapiens) (UniProt P0DMS8); test: Displacement of [125I]AB-MECA from human recombinant adenosine A3 receptor expressed in HEK293 cells at 10 uM after 120 mins by scintillation counting analysis; format: cell-based
T3 sequence (whole entry): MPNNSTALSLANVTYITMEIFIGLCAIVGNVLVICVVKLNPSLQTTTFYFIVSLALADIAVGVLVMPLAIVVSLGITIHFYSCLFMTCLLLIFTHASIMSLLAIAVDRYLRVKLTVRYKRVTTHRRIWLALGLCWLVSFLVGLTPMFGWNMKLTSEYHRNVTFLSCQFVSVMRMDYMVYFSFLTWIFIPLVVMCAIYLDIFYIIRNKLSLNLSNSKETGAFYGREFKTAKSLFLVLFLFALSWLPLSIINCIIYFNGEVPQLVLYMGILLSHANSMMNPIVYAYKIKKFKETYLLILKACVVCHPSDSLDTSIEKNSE

[10] = molecular target: T4, Adenosine receptor A1 (Homo sapiens) (UniProt P30542); test: Displacement of [3H]DPCPX from human recombinant adenosine A1 receptor expressed in CHO cells at 10 uM after 60 mins by scintillation counting analysis; format: cell-based
T4 sequence (whole entry): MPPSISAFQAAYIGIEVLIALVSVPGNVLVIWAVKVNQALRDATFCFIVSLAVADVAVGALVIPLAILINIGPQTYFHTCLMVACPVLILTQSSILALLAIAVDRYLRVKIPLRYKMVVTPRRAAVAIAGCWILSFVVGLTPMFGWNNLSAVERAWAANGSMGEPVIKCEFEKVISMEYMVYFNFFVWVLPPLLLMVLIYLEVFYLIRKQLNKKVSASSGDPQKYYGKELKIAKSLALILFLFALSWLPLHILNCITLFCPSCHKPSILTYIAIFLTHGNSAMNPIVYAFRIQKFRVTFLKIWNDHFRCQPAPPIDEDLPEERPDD

Mus musculus [11] = test: General behavioral response in CD1 mouse assessed as increase in licking behavior at 100 mg/kg, po after 240 mins by Irwin test; format: ADME, organism-based; design: dose 100 mg/kg, route oral; conditions: in vivo, 4 h
[12] = molecular target: T5, Amine oxidase [flavin-containing] A (Homo sapiens, UniProt P21397); test: Inhibition of human MAOA after 1 hr by luminescence assay
T5 sequence (P21397 whole entry): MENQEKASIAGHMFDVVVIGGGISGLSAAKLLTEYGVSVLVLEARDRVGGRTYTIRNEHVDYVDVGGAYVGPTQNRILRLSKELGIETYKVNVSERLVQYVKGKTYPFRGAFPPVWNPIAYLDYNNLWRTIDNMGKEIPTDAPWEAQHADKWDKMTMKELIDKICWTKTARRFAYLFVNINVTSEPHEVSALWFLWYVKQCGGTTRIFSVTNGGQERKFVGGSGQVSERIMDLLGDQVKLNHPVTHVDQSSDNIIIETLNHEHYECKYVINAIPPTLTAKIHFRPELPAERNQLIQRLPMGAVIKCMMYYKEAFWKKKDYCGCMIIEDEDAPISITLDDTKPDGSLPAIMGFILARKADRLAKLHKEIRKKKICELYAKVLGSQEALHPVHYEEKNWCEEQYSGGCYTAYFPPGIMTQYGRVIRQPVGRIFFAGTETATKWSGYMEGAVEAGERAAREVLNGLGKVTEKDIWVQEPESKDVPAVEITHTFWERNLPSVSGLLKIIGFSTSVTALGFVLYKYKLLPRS

[13] = molecular target: T6, Amine oxidase [flavin-containing] B (Homo sapiens, UniProt P27338); test: Inhibition of human MAOB after 1 hr by luminescence assay
T6 sequence (P27338 whole entry): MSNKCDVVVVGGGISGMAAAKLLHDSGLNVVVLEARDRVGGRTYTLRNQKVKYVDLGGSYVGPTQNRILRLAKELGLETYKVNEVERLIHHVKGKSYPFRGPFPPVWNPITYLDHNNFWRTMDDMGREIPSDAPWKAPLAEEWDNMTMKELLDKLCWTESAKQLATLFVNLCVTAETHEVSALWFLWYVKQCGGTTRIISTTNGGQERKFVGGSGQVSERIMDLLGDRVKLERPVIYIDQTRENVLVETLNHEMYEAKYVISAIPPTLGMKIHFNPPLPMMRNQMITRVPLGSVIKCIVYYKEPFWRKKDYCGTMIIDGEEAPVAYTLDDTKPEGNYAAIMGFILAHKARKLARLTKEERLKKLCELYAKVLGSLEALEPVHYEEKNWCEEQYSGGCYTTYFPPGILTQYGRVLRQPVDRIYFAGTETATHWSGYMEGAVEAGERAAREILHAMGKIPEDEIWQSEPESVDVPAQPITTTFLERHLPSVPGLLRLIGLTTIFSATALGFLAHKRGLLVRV

Adenosine receptor A2a [14] = molecular target: T2, Adenosine receptor A2a; test: Displacement of [3H]ZM241385 from human adenosine A2A receptor expressed in HEK293 cells after 1 hr by microbeta scintillation counting analysis; format: cell-based
Mus musculus [15] = test: Reversal of haloperidol-induced catalepsy in po dosed CD1 mouse treated 2.5 hrs after haloperidol injection measured every 60 mins for 3 hrs; format: functional, organism-based
Mus musculus [16] = test: Reversal of haloperidol-induced catalepsy in CD1 mouse at 10 mg/kg, po treated 2.5 hrs after haloperidol injection measured every 60 mins for 3 hrs; format: functional, organism-based; design: dose 10 mg/kg
Mus musculus [17] = test: Reversal of haloperidol-induced catalepsy in CD1 mouse at 30 to 100 mg/kg, po treated 2.5 hrs after haloperidol injection measured every 60 mins for 3 hrs; format: functional, organism-based
Mus musculus [18] = test: General behavioral response in CD1 mouse assessed as induction of limbic stereotype at 10 mg/kg, po after 90 mins by Irwin test; format: organism-based, Limbic system; design: dose 10 mg/kg, route oral; conditions: in vivo, 1.5 h

Compound	Ki (Adenosine receptor A2a [1]) [nM]	Activity (Mus musculus [2])	Activity (Mus musculus [3])	Activity (Mus musculus [4])	inhibition [5] [%]	inhibition [6] [%]	inhibition [7] [%]	inhibition (Adenosine receptor A2a [8]) [%]	inhibition [9] [%]	inhibition [10] [%]	Activity (Mus musculus [11])	IC50 [12] [nM]	IC50 [13] [nM]	Ki (Adenosine receptor A2a [14]) [nM]	Activity (Mus musculus [15])	Activity (Mus musculus [16])	Activity (Mus musculus [17])	Activity (Mus musculus [18])
C#CCn1c(=O)c2c(nc(C#Cc3ccccc3)n2C)n(C)c1=O	300	–	–	–	–	–	–	–	–	–	–	–	–	–	–	–	–	–
Cn1c(=O)c2c(cc(/C=C/c3ccc(Cl)cc3)n2C)n(C)c1=O	–	Toxic	Toxic	Non-toxic	57	72	75	91	60	59	Toxic	10000	200	260	Dose-dependent effect	inactive	Active	Non-toxic
